Drawing on ChEMBL document CHEMBL3272296, “Quinazolines and 1,4-benzodiazepines. 82.1 5-Pyrimidyl-and 5-pyrazinylbenzodiazepines” (1977), this text covers ED50 and minimal effective dose for ten compounds.

Holding throughout (assay type): functional
Assay [1] deals with Mus musculus. The experiment in a line: CNS activity in po dosed mouse assessed as reduction in fighting behaviour.
Assay [2] relates to Mus musculus. The experiment in a line: CNS activity in po dosed mouse assessed as reduction in muscle relaxant activity by inclined screening method.
In assay [3] the test system is Mus musculus. The experiment in a line: Anticonvulsant activity in po dosed mouse assessed as protection against maximal electroshock-induced seizures. In general terms: The maximal electroshock test induces tonic seizures with an electrical stimulus.
In assay [4] the test system is Mus musculus. The experiment in a line: Anticonvulsant activity in po dosed mouse assessed as protection against pentylenetetrazole-induced seizures.
Assay [5] concerns Felis catus. Description: CNS activity in po dosed unanesthesized cat assessed as muscle relaxant activity. The conditions noted are these: read-out: MED.

The term ED50 denotes the dose that gives a 50% effect, or the effect in half of the subjects. With `O=C1CN=C(c2ccncn2)c2cc(Cl)ccc2N1`, the ED50 is > 100 mg/kg in assay [1], > 400 mg/kg in assay [2], > 800 mg/kg in assay [3] and 340 mg/kg in assay [4].
Take `O=C1CN=C(c2cnccn2)c2cc(Cl)ccc2N1`: the ED50 in assay [1] is 50 mg/kg; in assay [2], 300 mg/kg; in assay [3], > 800 mg/kg; in assay [4], 7.4 mg/kg. Also, the minimal effective dose in assay [5] turned out to be 10 mg/kg.
As for `Cc1cnc(C)c(C2=NCC(=O)Nc3ccc(Br)cc32)n1`, the ED50 was 50 mg/kg in assay [1], > 400 mg/kg in assay [2], > 800 mg/kg in assay [3] and 37 mg/kg in assay [4]. The minimal effective dose in assay [5] stood at 10 mg/kg.
For `O=C1CN=C(c2ncccn2)c2cc(Cl)ccc2N1`, in that order: 100 mg/kg, 500 mg/kg, 520 mg/kg, 1.75 mg/kg and 2 mg/kg.
Regarding `CN1C(=O)CN=C(c2ncccn2)c2cc(Cl)ccc21`, the figures for the ED50 in assay [2], in assay [3] and in assay [4] were > 200 mg/kg, 315 mg/kg and 0.75 mg/kg, respectively. For the same compound, the minimal effective dose in assay [5] amounted to 0.1 mg/kg.
As to `O=[N+]([O-])c1ccc2c(c1)C(c1ncccn1)=NCCN2`, the ED50 in assay [2] was > 400 mg/kg; in assay [3] it was > 800 mg/kg; in assay [4] it was 68 mg/kg.
With `CN1CCN=C(c2ncccn2)c2cc([N+](=O)[O-])ccc21`, the ED50 in assay [1] was > 100 mg/kg; in assay [2], 250 mg/kg; in assay [3], > 800 mg/kg; in assay [4] it was 93 mg/kg. Further, the minimal effective dose in assay [5] was 20 mg/kg.
Taken in the same sequence, the figures for `CN1CCN=C(c2ncccn2)c2cc(Cl)ccc21` were 100 mg/kg, 200 mg/kg, 360 mg/kg, > 800 mg/kg and 10 mg/kg.
As for `O=C1CN=C(c2ccccn2)c2cc(Br)ccc2N1` [BROMAZEPAM], the ED50 was determined as 10 mg/kg in assay [1], 30 mg/kg in assay [2], 34 mg/kg in assay [3] and 0.8 mg/kg in assay [4]. The minimal effective dose in assay [5] stood at 0.2 mg/kg.
Taken in the same sequence, the figures for `CN1C(=O)CN=C(c2ccccc2)c2cc(Cl)ccc21` [DIAZEPAM] were 10 mg/kg, 30 mg/kg, 22 mg/kg, 1.4 mg/kg and 0.2 mg/kg.
